Data from PubChem BioAssay (NCI).
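Briefly, cells in 96-well plates were exposed to five compound concentrations for 48 h, and endpoints were estimated by linear interpolation. Here, GI50 denotes the concentration required for 50% inhibition of growth. TGI marks complete inhibition of growth.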

System: ACHN renal
Assay: growth of human tumour cells (NCI), 48 h

Structure (SMILES) | GI50 | TGI
OCCN(CCO)c1ncnc2c1ncn2Cc1ccc(CCl)cc1 | 14.9 µM | 28.5 µM
Cc1ccc2c(C)c3c(ccc4ccccc43)c[n+]2c1 | 29.6 µM | > 100 µM
Cc1ccc(CN2CCC(C(=O)Nc3ccc(-c4cc5ccccc5[nH]4)cc3)CC2)o1 | > 100 µM | > 100 µM
C=CC(=O)Nc1cc(Nc2ncc(C(=O)OC(C)C)c(-c3cn(C)c4ccccc34)n2)c(OC)cc1N(C)CCN(C)C | 0.0218 µM | 12.1 µM
CNS(=O)(=O)NNS(=O)(=O)c1ccccc1 |  | > 100 µM
O=C(Nc1ccc(F)cc1)Nc1ccc(Cl)c([N+](=O)[O-])c1 | 2.96 µM | 11 µM
CCOC(=O)Cn1c(C(F)(F)F)nc2nc(Cl)c(Cl)nc21 |  | > 67.9 µM
Fc1[nH]nc2ccc([C@@H]3Nc4ccc5[nH]ncc5c4[C@H]4C5CCC(C5)[C@@H]34)cc12 (stereo not given in full) | 1.52 µM | 13.6 µM
Nc1ccccc1C#C/C=C\C#Cc1ccccc1OC(F)(F)F | 9.15 µM | 50.4 µM
COC(=O)/C(C#N)=C1\NC(=O)c2ccccc21 |  | > 100 µM
Fc1ccc(NC(=S)SCc2ccc3c(c2)OCO3)cc1F |  | 64.4 µM

System: COLO 205 colon
Assay: growth of human tumour cells (NCI), 48 h

Structure (SMILES) | GI50 | TGI
OCCN(CCO)c1ncnc2c1ncn2Cc1ccc(CCl)cc1 | 18.2 µM | 46.8 µM
Cc1ccc2c(C)c3c(ccc4ccccc43)c[n+]2c1 | 11 µM | 24.7 µM
Cc1ccc(CN2CCC(C(=O)Nc3ccc(-c4cc5ccccc5[nH]4)cc3)CC2)o1 | 71 µM | > 100 µM
C=CC(=O)Nc1cc(Nc2ncc(C(=O)OC(C)C)c(-c3cn(C)c4ccccc34)n2)c(OC)cc1N(C)CCN(C)C | 3.2 µM | > 22.2 µM
CNS(=O)(=O)NNS(=O)(=O)c1ccccc1 |  | > 100 µM
O=C(Nc1ccc(F)cc1)Nc1ccc(Cl)c([N+](=O)[O-])c1 | 2.48 µM | 6.31 µM
CCOC(=O)Cn1c(C(F)(F)F)nc2nc(Cl)c(Cl)nc21 |  | > 100 µM
Fc1[nH]nc2ccc([C@@H]3Nc4ccc5[nH]ncc5c4[C@H]4C5CCC(C5)[C@@H]34)cc12 (stereo not given in full) | 0.801 µM | 4.81 µM
Nc1ccccc1C#C/C=C\C#Cc1ccccc1OC(F)(F)F | 5.19 µM | 28 µM
COC(=O)/C(C#N)=C1\NC(=O)c2ccccc21 |  | > 100 µM
Fc1ccc(NC(=S)SCc2ccc3c(c2)OCO3)cc1F |  | 44.9 µM

System: HOP-92 NSCLC
Assay: growth of human tumour cells (NCI), 48 h

Structure (SMILES) | GI50 | TGI
OCCN(CCO)c1ncnc2c1ncn2Cc1ccc(CCl)cc1 | 16.4 µM | 31.7 µM
Cc1ccc2c(C)c3c(ccc4ccccc43)c[n+]2c1 | 6.28 µM | 35.2 µM
Cc1ccc(CN2CCC(C(=O)Nc3ccc(-c4cc5ccccc5[nH]4)cc3)CC2)o1 | 2.71 µM | > 100 µM
C=CC(=O)Nc1cc(Nc2ncc(C(=O)OC(C)C)c(-c3cn(C)c4ccccc34)n2)c(OC)cc1N(C)CCN(C)C | 2.02 µM | 10.1 µM
CNS(=O)(=O)NNS(=O)(=O)c1ccccc1 |  | > 100 µM
O=C(Nc1ccc(F)cc1)Nc1ccc(Cl)c([N+](=O)[O-])c1 | 2.03 µM | 6.12 µM
CCOC(=O)Cn1c(C(F)(F)F)nc2nc(Cl)c(Cl)nc21 |  | 70.3 µM
Fc1[nH]nc2ccc([C@@H]3Nc4ccc5[nH]ncc5c4[C@H]4C5CCC(C5)[C@@H]34)cc12 (stereo not given in full) | 2 µM | 14.2 µM
Nc1ccccc1C#C/C=C\C#Cc1ccccc1OC(F)(F)F | 9.57 µM | 26.4 µM
COC(=O)/C(C#N)=C1\NC(=O)c2ccccc21 |  | > 100 µM
Fc1ccc(NC(=S)SCc2ccc3c(c2)OCO3)cc1F |  | 88.9 µM

System: KM12 colon
Assay: growth of human tumour cells (NCI), 48 h

Structure (SMILES) | GI50 | TGI
OCCN(CCO)c1ncnc2c1ncn2Cc1ccc(CCl)cc1 | 14.3 µM | 29.2 µM
Cc1ccc2c(C)c3c(ccc4ccccc43)c[n+]2c1 | 1.56 µM | 14.8 µM
Cc1ccc(CN2CCC(C(=O)Nc3ccc(-c4cc5ccccc5[nH]4)cc3)CC2)o1 | 83.9 µM | > 100 µM
C=CC(=O)Nc1cc(Nc2ncc(C(=O)OC(C)C)c(-c3cn(C)c4ccccc34)n2)c(OC)cc1N(C)CCN(C)C | 5.85 µM | 13.9 µM
CNS(=O)(=O)NNS(=O)(=O)c1ccccc1 |  | > 100 µM
O=C(Nc1ccc(F)cc1)Nc1ccc(Cl)c([N+](=O)[O-])c1 | 3.3 µM | 13.8 µM
CCOC(=O)Cn1c(C(F)(F)F)nc2nc(Cl)c(Cl)nc21 |  | 34 µM
Fc1[nH]nc2ccc([C@@H]3Nc4ccc5[nH]ncc5c4[C@H]4C5CCC(C5)[C@@H]34)cc12 (stereo not given in full) | 0.559 µM | 11.5 µM
Nc1ccccc1C#C/C=C\C#Cc1ccccc1OC(F)(F)F | 4.78 µM | 27.3 µM
COC(=O)/C(C#N)=C1\NC(=O)c2ccccc21 |  | > 100 µM
Fc1ccc(NC(=S)SCc2ccc3c(c2)OCO3)cc1F |  | 61.7 µM

System: NCI-H522 lung
Assay: growth of human tumour cells (NCI), 48 h

Structure (SMILES) | GI50 | TGI
OCCN(CCO)c1ncnc2c1ncn2Cc1ccc(CCl)cc1 | 18.5 µM | 46.6 µM
Cc1ccc2c(C)c3c(ccc4ccccc43)c[n+]2c1 | 15.5 µM | 38.8 µM
Cc1ccc(CN2CCC(C(=O)Nc3ccc(-c4cc5ccccc5[nH]4)cc3)CC2)o1 | > 100 µM | > 100 µM
C=CC(=O)Nc1cc(Nc2ncc(C(=O)OC(C)C)c(-c3cn(C)c4ccccc34)n2)c(OC)cc1N(C)CCN(C)C | 0.02 µM | 5.74 µM
CNS(=O)(=O)NNS(=O)(=O)c1ccccc1 |  | > 100 µM
O=C(Nc1ccc(F)cc1)Nc1ccc(Cl)c([N+](=O)[O-])c1 | 2.44 µM | 10.8 µM
CCOC(=O)Cn1c(C(F)(F)F)nc2nc(Cl)c(Cl)nc21 |  | 58.2 µM
Fc1[nH]nc2ccc([C@@H]3Nc4ccc5[nH]ncc5c4[C@H]4C5CCC(C5)[C@@H]34)cc12 (stereo not given in full) | 0.432 µM | 9.27 µM
Nc1ccccc1C#C/C=C\C#Cc1ccccc1OC(F)(F)F | 3.47 µM | 14 µM
COC(=O)/C(C#N)=C1\NC(=O)c2ccccc21 |  | > 100 µM
Fc1ccc(NC(=S)SCc2ccc3c(c2)OCO3)cc1F |  | 35.4 µM

System: SF-539 CNS
Assay: growth of human tumour cells (NCI), 48 h

Structure (SMILES) | GI50 | TGI
OCCN(CCO)c1ncnc2c1ncn2Cc1ccc(CCl)cc1 | 10.3 µM | 24.2 µM
Cc1ccc2c(C)c3c(ccc4ccccc43)c[n+]2c1 | 13.8 µM | 28.2 µM
Cc1ccc(CN2CCC(C(=O)Nc3ccc(-c4cc5ccccc5[nH]4)cc3)CC2)o1 | > 100 µM | > 100 µM
C=CC(=O)Nc1cc(Nc2ncc(C(=O)OC(C)C)c(-c3cn(C)c4ccccc34)n2)c(OC)cc1N(C)CCN(C)C | 3.1 µM | 9.45 µM
CNS(=O)(=O)NNS(=O)(=O)c1ccccc1 |  | > 100 µM
O=C(Nc1ccc(F)cc1)Nc1ccc(Cl)c([N+](=O)[O-])c1 | 3.86 µM | 14.3 µM
CCOC(=O)Cn1c(C(F)(F)F)nc2nc(Cl)c(Cl)nc21 |  | > 85.4 µM
Fc1[nH]nc2ccc([C@@H]3Nc4ccc5[nH]ncc5c4[C@H]4C5CCC(C5)[C@@H]34)cc12 (stereo not given in full) | 0.854 µM | 3.94 µM
Nc1ccccc1C#C/C=C\C#Cc1ccccc1OC(F)(F)F | 3.5 µM | 13.3 µM
COC(=O)/C(C#N)=C1\NC(=O)c2ccccc21 |  | > 100 µM
Fc1ccc(NC(=S)SCc2ccc3c(c2)OCO3)cc1F |  | 53.5 µM

System: SR leukemia
Assay: growth of human tumour cells (NCI), 48 h

Structure (SMILES) | GI50 | TGI
OCCN(CCO)c1ncnc2c1ncn2Cc1ccc(CCl)cc1 | 6.94 µM | > 100 µM
Cc1ccc2c(C)c3c(ccc4ccccc43)c[n+]2c1 | 3.75 µM | 22.9 µM
Cc1ccc(CN2CCC(C(=O)Nc3ccc(-c4cc5ccccc5[nH]4)cc3)CC2)o1 | 4.3 µM | > 100 µM
C=CC(=O)Nc1cc(Nc2ncc(C(=O)OC(C)C)c(-c3cn(C)c4ccccc34)n2)c(OC)cc1N(C)CCN(C)C | 3.04 µM | > 33.7 µM
CNS(=O)(=O)NNS(=O)(=O)c1ccccc1 |  | > 100 µM
O=C(Nc1ccc(F)cc1)Nc1ccc(Cl)c([N+](=O)[O-])c1 | 3.41 µM | > 100 µM
CCOC(=O)Cn1c(C(F)(F)F)nc2nc(Cl)c(Cl)nc21 |  | > 100 µM
Fc1[nH]nc2ccc([C@@H]3Nc4ccc5[nH]ncc5c4[C@H]4C5CCC(C5)[C@@H]34)cc12 (stereo not given in full) | 0.37 µM | 3.61 µM
Nc1ccccc1C#C/C=C\C#Cc1ccccc1OC(F)(F)F | 1.63 µM | 13.9 µM
COC(=O)/C(C#N)=C1\NC(=O)c2ccccc21 |  | > 100 µM
Fc1ccc(NC(=S)SCc2ccc3c(c2)OCO3)cc1F |  | 43.9 µM

System: UACC-257 melanoma
Assay: growth of human tumour cells (NCI), 48 h

Structure (SMILES) | GI50 | TGI
OCCN(CCO)c1ncnc2c1ncn2Cc1ccc(CCl)cc1 | 13.8 µM | 28.9 µM
Cc1ccc2c(C)c3c(ccc4ccccc43)c[n+]2c1 | 10.4 µM | 77.1 µM
Cc1ccc(CN2CCC(C(=O)Nc3ccc(-c4cc5ccccc5[nH]4)cc3)CC2)o1 | > 100 µM | > 100 µM
C=CC(=O)Nc1cc(Nc2ncc(C(=O)OC(C)C)c(-c3cn(C)c4ccccc34)n2)c(OC)cc1N(C)CCN(C)C | 1.8 µM | 3.71 µM
CNS(=O)(=O)NNS(=O)(=O)c1ccccc1 |  | > 100 µM
O=C(Nc1ccc(F)cc1)Nc1ccc(Cl)c([N+](=O)[O-])c1 | 2.73 µM | 8.85 µM
CCOC(=O)Cn1c(C(F)(F)F)nc2nc(Cl)c(Cl)nc21 |  | 53.4 µM
Fc1[nH]nc2ccc([C@@H]3Nc4ccc5[nH]ncc5c4[C@H]4C5CCC(C5)[C@@H]34)cc12 (stereo not given in full) | 10.4 µM | 23.9 µM
Nc1ccccc1C#C/C=C\C#Cc1ccccc1OC(F)(F)F | 12 µM | 50.7 µM
COC(=O)/C(C#N)=C1\NC(=O)c2ccccc21 |  | > 100 µM
Fc1ccc(NC(=S)SCc2ccc3c(c2)OCO3)cc1F |  | 64 µM

System: UACC-62 melanoma
Assay: growth of human tumour cells (NCI), 48 h

Structure (SMILES) | GI50 | TGI
OCCN(CCO)c1ncnc2c1ncn2Cc1ccc(CCl)cc1 | 18 µM | 33.5 µM
Cc1ccc2c(C)c3c(ccc4ccccc43)c[n+]2c1 | 8.88 µM | 22 µM
Cc1ccc(CN2CCC(C(=O)Nc3ccc(-c4cc5ccccc5[nH]4)cc3)CC2)o1 | 45.5 µM | > 100 µM
C=CC(=O)Nc1cc(Nc2ncc(C(=O)OC(C)C)c(-c3cn(C)c4ccccc34)n2)c(OC)cc1N(C)CCN(C)C | 2.34 µM | 7 µM
CNS(=O)(=O)NNS(=O)(=O)c1ccccc1 |  | > 100 µM
O=C(Nc1ccc(F)cc1)Nc1ccc(Cl)c([N+](=O)[O-])c1 | 3.04 µM | 13.2 µM
CCOC(=O)Cn1c(C(F)(F)F)nc2nc(Cl)c(Cl)nc21 |  | > 78.4 µM
Fc1[nH]nc2ccc([C@@H]3Nc4ccc5[nH]ncc5c4[C@H]4C5CCC(C5)[C@@H]34)cc12 (stereo not given in full) | 0.849 µM | 13.2 µM
Nc1ccccc1C#C/C=C\C#Cc1ccccc1OC(F)(F)F | 5.94 µM | 21 µM
COC(=O)/C(C#N)=C1\NC(=O)c2ccccc21 |  | > 100 µM
Fc1ccc(NC(=S)SCc2ccc3c(c2)OCO3)cc1F |  | 27.3 µM

System: UO-31 renal
Assay: growth of human tumour cells (NCI), 48 h

Structure (SMILES) | GI50 | TGI
OCCN(CCO)c1ncnc2c1ncn2Cc1ccc(CCl)cc1 | 14.9 µM | 31 µM
Cc1ccc2c(C)c3c(ccc4ccccc43)c[n+]2c1 | 27.8 µM | > 100 µM
Cc1ccc(CN2CCC(C(=O)Nc3ccc(-c4cc5ccccc5[nH]4)cc3)CC2)o1 | > 100 µM | > 100 µM
C=CC(=O)Nc1cc(Nc2ncc(C(=O)OC(C)C)c(-c3cn(C)c4ccccc34)n2)c(OC)cc1N(C)CCN(C)C | 0.442 µM | 12.9 µM
CNS(=O)(=O)NNS(=O)(=O)c1ccccc1 |  | > 100 µM
O=C(Nc1ccc(F)cc1)Nc1ccc(Cl)c([N+](=O)[O-])c1 | 2.69 µM | 10.6 µM
CCOC(=O)Cn1c(C(F)(F)F)nc2nc(Cl)c(Cl)nc21 |  | 10.9 µM
Fc1[nH]nc2ccc([C@@H]3Nc4ccc5[nH]ncc5c4[C@H]4C5CCC(C5)[C@@H]34)cc12 (stereo not given in full) | 2.83 µM | 14.1 µM
Nc1ccccc1C#C/C=C\C#Cc1ccccc1OC(F)(F)F | 4.63 µM | 22.8 µM
COC(=O)/C(C#N)=C1\NC(=O)c2ccccc21 |  | > 100 µM
Fc1ccc(NC(=S)SCc2ccc3c(c2)OCO3)cc1F |  | 37.9 µM
